Data published in patent publication US20250250252A1, “PIPERIDINYLBENZONITRILE DERIVATIVES AS INHIBITORS OF GLUTAMINYL-PEPTIDE CYCLOTRANSFERASE AND GLUTAMINYL-PEPTIDE CYCLOTRANSFERASE LIKE PROTEIN” (Boehringer Ingelheim International GmbH, priority 2024, published 2025).
pIC50: −log10 of the molar value.

Columns and labels:
[1] = system: SIRPα signalling induced by Raji cells; assay: Assay B: SIRPα signalling assay using Raji cells; assay type: cell-based; details: Homo sapiens, read-out: Inhibition of SIRPα signalling induced by Raji cells: IC50
Description: Bioassay reagent 1 of the PathHunter Bioassay detection kit (DiscoverX 93-0001) was added to each well of the plate using a multichannel pipette followed by a 15 min incubation at room temperature. Afterwards bioassay reagent 2 was added followed by 60 min incubation at room temperature (incubation in the dark).
The analysis of the data was performed using the luminescence signal generated by betagalactosidase in the PathHunter reporter cell line. The luminescence measurement was done using a Pherastar Multi-Mode Reader.

[2] = system: SIRPα signalling induced by A549 cells; assay: Assay B: SIRPα signalling assay using A549 cells; assay type: cell-based; details: Homo sapiens, read-out: Inhibition of SIRPα signalling induced by A549 cells: IC50
Description: Two cell types are independently used: the Raji cell line (lymphoblast-like human cell line derived from B lymphocytes from a Burkitt's lymphoma patient in 1963) and A549 cells (adenocarcinomic human alveolar basal epithelial cells).
Test compounds were dissolved in 100% DMSO and serially diluted into a white 384-well microtiter cell culture plate (PerkinElmer #60076780 in case of Raji assay; PDL-coated plates Greiner #781945 in case of A549 assay). 5000 Raji cells (ATCC #CC86) or 5000 A549 cells (ATCC #CCL-185) in Assay Complete Cell Plating reagent 30 (DiscoverX 93-0563R30B) were added per well. The assay plate was incubated for 48 h at 37° C., 95% humidity and 5% CO2. 15000 reporter cells (Jurkat PathHunter SIRPαV1, DiscoverX #93-1135C19) were added to each well, and the plate was incubated for 5 h at 37° C., 95% humidity and 5% CO2. Bioassay reagent 1 of the PathHunter Bioassay detection kit (DiscoverX 93-0001) was added to each well of the plate using a multichannel pipette followed by a 15 min incubation at room temperature. Afterwards bioassay reagent 2 was added followed by 60 min incubation at room temperature (incubation in the dark).
The analysis of the data was performed using the luminescence signal generated by betagalactosidase in the PathHunter reporter cell line. The luminescence measurement was done using a Pherastar Multi-Mode Reader. Dose-response curves & IC50 data were calculated with 4-parameter sigmoidal dose response formula.

[3] = Assay C: Permeability in CACO-2 cells; assay type: in vitro ADME; details: human, Assay C; for efflux ratio: Caco-2, pH 7.2, permeability B-A/permeability A-B, read-out: Efflux Ratio; for Papp A→B: pH 7.2, CACO-2 cells
Description: Caco-2 cells (1-2×10^5 cells/1 cm^2 area) are seeded on filter inserts (Costar transwell polycarbonate or PET filters, 0.4 μm pore size) and cultured (DMEM) for 10 to 25 days. Compounds are dissolved in appropriate solvent (like DMSO, 1-20 mM stock solutions). […] The transport solution (TL) is applied to the apical or basolateral donor side for measuring A-B or B-A permeability (3 filter replicates), respectively. Samples are collected at the start and end of experiment from the donor and at various time intervals for up to 2 hours also from the receiver side for concentration measurement by HPLC-MS/MS or scintillation counting. Sampled receiver volumes are replaced with fresh receiver solution.
Efflux ratio (ER)=permeability B-A/permeability A-B

CYP3A4 mRNA = assay: Assay D: CYP induction screening assay in primary human hepatocytes; assay type: in vitro ADME; details: 48 h
Description: Cryopreserved plateable human hepatocytes (single donor, BioIVT) were thawed and plated in Collagen-I coated 96-well-plates at a cell density of 0.07 million cells per well.
After a 6 h attachment period, the seeding medium was replaced by serum-free William's medium E supplemented with Matrigel (0.25 mg/ml) and allowed to recover overnight. 24 h post-seeding, serum-free Williams E medium containing the test compound at a final concentration of 10 μM and a final DMSO content of 0.1% and 0.1% DMSO (solvents treated control), respectively, was added to predefined wells. Exposure solutions were renewed after 24 h.
After 48 h of treatment in total, the effect of the test compounds on CYP3A4 mRNA expression was assessed using the QuantiGene Plex Gene Expression Assay. Hepatocytes were lysed and total RNA was extracted using the QuantiGene Sample Processing Kit according to the instructions of the manufacturer.
mRNA quantification was conducted using a customized QuantiGene Plex Panel to analyse CYP3A4 and the housekeeper genes RPL32, EIF4E2 and GUSB according to the instructions of the manufacturer and measured on a Luminex™ instrument. Signal was reported as median fluorescence intensity (MFI), which is proportional to the number of target RNA molecules present in the sample.
For calculation of CYP3A4 mRNA induction, the signal for CYP3A4 was normalized against the geometric mean of the signal obtained for the housekeeper genes for hepatocytes exposed to test compounds in relation to solvent-treated samples according to the following equation:
n-fold induction=(MFI CYP3A4 (treated)/Xgeo MFI (RPL32,EIF4E2,GUSB))/(MFI CYP3A4 (solvent control)/Xgeo MFI (RPL32,EIF4E2,GUSB))

murine hepatocytes = assay: Assay E: Stability in murine hepatocytes; assay type: in vitro ADME, mouse; details: 1 μM
Description: The metabolic degradation of the test compound is assayed in a murine hepatocyte suspension.
Murine hepatocytes (typically cryopreserved) are incubated in an appropriate buffer system (e.g. Dulbecco's modified eagle medium plus 3.5 μg glucagon/500 mL, 2.5 mg insulin/500 mL and 3.75 mg/500 mL hydrocortison) containing 5% species serum.
Following a (typically) 30 min preincubation in an incubator (37° C., 10% CO2) 5 μl of test compound solution (80 μM; from 2 mM in DMSO stock solution diluted 1:25 with medium) are added into 395 μl hepatocyte suspension (cell density in the range 0.25-5 Mio cells/mL, typically 1 Mio cells/mL; final concentration of test compound 1 μM, final DMSO concentration 0.05%).
The cells are incubated for six hours (incubator, orbital shaker) and samples (2 μl) are taken at 0, 0.5, 1, 2, 4 and 6 hours. Samples are transferred into acetonitrile and pelleted by centrifugation (5 min). The supernatant is transferred to a new 96-deepwell plate, evaporated under nitrogen and resuspended.
CLint is calculated as follows CL_[…]=Dose/AUC=(C0/CD)/(AUD+clast/k)×1000/60. C0: initial concentration in the incubation [μM], CD: cell density of vital cells [10e6cells/mL], AUD: area under the data [μM×h], clast: concentration of last data point [μM], k: slope of the regression line for parent decline [h−1].
The calculated in vitro hepatic intrinsic clearance can be scaled up to the intrinsic in vivo hepatic Clearance and used to predict hepatic in vivo blood clearance (CL) by the use of a liver model (well stirred model).
CL_[…]_INVIVO[ml/min/kg]=(CL_[…][μL/min/10e6cells]×hepatocellularity[10e6cells/g liver]×liver factor[g/kg bodyweight])/1000
CL[ml/min/kg]=CL_[…]_INVIVO[ml/min/kg]×hepatic blood flow[ml/min/kg]/(CL_[…]_INVIVO[ml/min/kg]+hepatic blood flow[ml/min/kg])
Hepatocellularity,mouse:120×10e6cells/g liver
Liver factor,mouse:55 g/kg bodyweight
Blood flow,mouse:90 ml/(min×kg)

QPCTL = QPCTL (Homo sapiens (Human), UniProt Q9NXS2); assay: Assay A: biochemical QPCTL activity assay (MALDI-TOF MS); details: read-out: Inhibition of QPCTL: IC50
Chain of QPCTL (Q9NXS2 whole entry): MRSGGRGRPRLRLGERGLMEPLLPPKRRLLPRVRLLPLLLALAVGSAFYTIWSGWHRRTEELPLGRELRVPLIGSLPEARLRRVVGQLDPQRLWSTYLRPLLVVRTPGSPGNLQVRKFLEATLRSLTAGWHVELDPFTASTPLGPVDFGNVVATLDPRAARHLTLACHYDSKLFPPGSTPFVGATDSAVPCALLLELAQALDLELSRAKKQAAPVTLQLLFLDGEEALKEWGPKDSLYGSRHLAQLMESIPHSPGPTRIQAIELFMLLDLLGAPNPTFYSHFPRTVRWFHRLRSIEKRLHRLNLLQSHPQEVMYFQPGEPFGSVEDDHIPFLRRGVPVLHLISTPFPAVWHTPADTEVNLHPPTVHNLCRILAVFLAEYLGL
Description: (§1) QPCT or QPCTL dependent conversion of N-terminal glutamine to pyroglutamate of CD47 was monitored via MALDI-TOF MS. Test compounds were dissolved in 100% DMSO and serially diluted into clear 1,536-well microtiter plates. Enzymatic reactions were set up in assay buffer containing 20 mM Tris pH 7.5, 0.1 mM TCEP, 0.01% BSA, and 0.001% Tween20. […] The plates were incubated for 10 min in a humidified incubator at 24° C. Subsequently, 2.5 μL of CD47 peptide substrate surrogate (^19[…]^33) was added to each well (final concentration: 10 μM for QPCTL/20 μM for QPCT). The plates were mixed for 30 sec at 1,000 rpm and subsequently incubated for 40 min in a humidified incubator at 24° C. […] The plates were sealed with an adhesive foil, mixed for 30 s at 1,000 rpm and stored at room temperature until preparation of the MALDI target plates. […] QPCT or QPCTL activity was monitored by calculating the ratio between product and internal standard signals followed by normalization to high (100% activity) and low (0% activity) controls. Determination of compound potencies was obtained by fitting the dose-response data to a four-parameter logistical equation.

QPCT = QPCT (Homo sapiens (Human), UniProt Q16769); assay: Assay A: biochemical QPCT activity assay (MALDI-TOF MS); details: read-out: Inhibition of QPCT: IC50
Chain of QPCT (Q16769 29-361): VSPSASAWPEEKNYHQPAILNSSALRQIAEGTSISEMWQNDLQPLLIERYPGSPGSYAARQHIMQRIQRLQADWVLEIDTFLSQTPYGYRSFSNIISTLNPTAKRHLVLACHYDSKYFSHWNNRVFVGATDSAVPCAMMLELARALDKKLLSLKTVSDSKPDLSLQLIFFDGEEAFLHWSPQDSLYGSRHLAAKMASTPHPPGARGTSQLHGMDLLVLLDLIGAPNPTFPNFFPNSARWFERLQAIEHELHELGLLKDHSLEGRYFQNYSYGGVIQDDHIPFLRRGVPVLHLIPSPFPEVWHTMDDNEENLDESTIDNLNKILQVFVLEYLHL
Description: as §1

| Structure (SMILES) | pIC50 [1] | pIC50 [2] | efflux ratio [3] | Papp A→B [3] [×10⁻⁶ cm/s] | n-fold induction of CYP3A4 at 10 μM (CYP3A4 mRNA) [n-fold] | Mouse Hepatocyte Stability QH (murine hepatocytes) [%] | pIC50 (QPCTL) | pIC50 (QPCT) |
| --- | --- | --- | --- | --- | --- | --- | --- | --- |
| Cn1cncc1C1CCN(c2c(C#N)cccc2-c2ccc(F)nc2)CC1 [QP5038, reference compound] | 7.68 | 8.22 | 0.8 | 61 | 58.5 | 97 | – | – |
| Cc1ncc(-c2cc(C#N)c(N3CCC(F)(c4nncn4C)CC3)c(-c3ccc(F)nc3)c2)o1 [Example 2] | 6.74 | 7.44 | 3.3 | 26 | 1.6 | 15 | 8.70 | 8.40 |
| Cn1cc(-c2ccc(-c3ccc(F)nc3)c(N3CCC(c4nncn4C)CC3)c2C#N)cn1 [Compound 35, reference compound] | 7.55 | 8.05 | 12.2 | 4.9 | 3.0 | 16 | 8.70 | 8.40 |
| Cn1cc(-c2cc(C#N)c(N3CCC(F)(c4nncn4C)CC3)c(-c3ccc(F)nc3)c2)cn1 [Example 5] | 7.28 | 7.60 | 6.7 | 5.4 | 7.7 | <12 | 8.70 | 8.70 |
| Cn1cnnc1C1CCN(c2c(-c3ccc(F)nc3)ccc(-c3ccnc(N)c3)c2C#N)CC1 [Compound 44, reference compound] | 6.92 | 7.17 | 47.9 | 0.5 | 1.0 | 65 | 9.00 | 8.30 |
| Cn1cnnc1C1(F)CCN(c2c(C#N)cc(C(C)(C)O)cc2-c2ccc(F)nc2)CC1 [Example 1] | 7.59 | 7.06 | 11.9 | 4.2 | 2.2 | 23 | 9.00 | 9.00 |
| Cn1cnnc1C1(F)CCN(c2c(C#N)cc(-c3ccnnc3)cc2-c2ccc(F)nc2)CC1 [Example 8] | 6.57 | 6.19 | 20.3 | 0.7 | 0.9 | 20 | 8.70 | 8.52 |
| Cn1cnnc1C1(F)CCN(c2c(C#N)cc(-c3cccnc3)cc2-c2ccc(F)nc2)CC1 [Example 6] | 6.86 | 7.48 | 4.6 | 19 | 1.8 | 35 | 8.52 | 8.40 |
| Cc1nn(C)cc1-c1cc(C#N)c(N2CCC(F)(c3nncn3C)CC2)c(-c2ccc(F)nc2)c1 [Example 4] | 7.05 | 7.59 | 8.8 | 5 | 2.0 | 21 | 8.70 | 8.52 |
| Cc1ncc(-c2cc(C#N)c(N3CCC(F)(c4nncn4C)CC3)c(-c3ccc(F)nc3)c2)cn1 [Example 7] | 7.00 | 7.43 | 7.9 | 4.8 | 0.7 | 48 | 8.52 | 8.40 |
